We go through six compounds from patent US11766427B2, “Repurposing compounds for the treatment of infections and for modulating the composition of the gut microbiome” (EUROPEAN MOLECULAR BIOLOGY LABORATORY, priority 2018, dated 2023).

Read-outs that look alike come from different tables or passages of the source.

The subject of data set [1] is Fusobacterium nucleatum (NT5025). The data set is described as follows: Prestwick Chemical Library growth screen (OD578 growth curves, AUC). Type of data set: cell-based. To be noted: screen at 20 μM.
The subject of data set [2] is 40 different bacterial species. Nature of the data set: Prestwick Chemical Library growth screen, whole panel (hits, anticommensal activity). Type of data set: cell-based, human gut isolates.
The test system of data set [3] is Bacteroides ovatus (NT5054). The data set is described as follows: Prestwick Chemical Library growth screen (OD578 growth curves, AUC). Type of data set: cell-based. To be noted: FIG. 8b, three biological replicates, 20 μM.
For data set [4], the system named is Bacteroides fragilis (ET) (NT5033). Format: cell-based, Bacteroides fragilis enterotoxigenic. The conditions noted are these: screen at 20 μM.
For data set [5] the following is noted: calculated; cited from earlier work.
A further data set has as its system 22 strains. The data set is described as follows: MIC of metformin at higher concentrations. To be noted: 5/22 strains.
Data set [6] is described as follows: Estimated gut concentration from administration dose. The conditions noted are these: estimated from recommended administration dose.
The conditions of data set [7]: cited from earlier work.
[8] abbreviates: number of species inhibited of 40 different bacterial species tested.

As to `O=c1cc(-c2ccc(O)c(O)c2)oc2cc(O)cc(O)c12` [Luteolin], the “selective inhibition of the growth of Fusobacterium nucleatum (in words)” value in data set [1] is “selectively inhibiting the growth”. This compound yielded a n_hit in data set [2] (setting [8]) of 1.
`CCOC(=O)Nc1ccc2c(c1)N(C(=O)CCN1CCOCC1)c1ccccc1S2` [moricizine]: the “effect on growth curves (normalized OD/AUC) of Bacteroides ovatus (in words)” value in data set [3] is given as “a hit with partial but strong growth inhibition”.
In the case of `Cc1ccc(Cl)c(Nc2ccccc2C(=O)O)c1Cl` [Meclofenamic acid], the “selective inhibition of the growth of an enterotoxigenic strain of Bacteroides fragilis (in words)” value in data set [4] is listed as “selectively inhibiting the growth”. Further, the “effect on growth curves (normalized OD/AUC) of Bacteroides ovatus (in words)” value in data set [3] was “just below the hit threshold”. Further, the n_hit in data set [2] (setting [8]) came to 5.
For `CN(C)C(=N)N=C(N)N` [metformin], in data set [2] (20 μM, 40 strains, FDR<0.01), the “anticommensal activity in the screen (in words)” value is on record as “did not show anticommensal activity”. Besides, in data set [5], the “small intestine concentration relative to plasma concentration” value is 30-300 fold. In addition, the “Minimal Inhibitory Concentration (MIC)” value in the data set on 22 strains was under 10 mM. In addition, in data set [6], the estimated gut concentration is given as 5 mM.
In the case of `CC[C@@H]([C@H](C)O)n1ncn(-c2ccc(N3CCN(c4ccc(OC[C@@H]5CO[C@@](Cn6cncn6)(c6ccc(F)cc6F)C5)cc4)CC3)cc2)c1=O` [posaconazole], the “maximum concentration in the duodenum” value in data set [7] (40 mg (57 μmol) delivered to the stomach in acidic solution) was 26.3 ± 10.3 µM; in data set [7] (40 mg (57 μmol) delivered to the stomach in neutral solution) it was 13.6 ± 5.8 µM.
`CC(=O)Oc1cccc2c1C(=O)c1c(OC(C)=O)cc(C(=O)O)cc1C2=O` [Diacerein]: the “effect on growth curves (normalized OD/AUC) of Bacteroides ovatus (in words)” value in data set [3] was “almost completely inhibits the growth”. The compound further gave a n_hit in data set [2] (number of the 40 bacterial species tested whose growth is inhibited, Table 7 broad-spectrum compounds) of 33.
